GI50 and TGI data for ten compounds are collected here from PubChem BioAssay (NCI).

Some test systems named below: A549 NSCLC; TK-10 renal; HL-60(TB) leukemia; ACHN renal; MDA-MB-231 breast; HOP-92 NSCLC; NCI-H226 lung; NCI-H23 lung; SK-MEL-5 melanoma; UACC-257 melanoma.
What all share (experiment): growth of human tumour cells (NCI), 48 h

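The compound was tested at five concentrations on cells cultured in 96-well plates, with a 48-hour exposure period. At the GI50, growth is halved. TGI: concentration producing complete growth inhibition.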

In the case of `N#C/C(=C\c1ccc(F)cc1)n1nc2cccc(F)c2n1`, the GI50 is 4.01 µM in the experiment with A549 NSCLC; 7.01 µM with TK-10 renal; 2690 nM in the experiment on HL-60(TB) leukemia; 5.41 µM with ACHN renal; 5.55 µM in the experiment with MDA-MB-231 breast; 2100 nM in the experiment with HOP-92 NSCLC. The values for the GI50 with NCI-H226 lung, in the experiment with NCI-H23 lung and with SK-MEL-5 melanoma were 4640 nM, 3.9 µM and 3760 nM, respectively. Further, the TGI in the experiment with A549 NSCLC was greater than 100 µM; in the experiment on TK-10 renal it was greater than 100 µM; with HL-60(TB) leukemia it was 7.68 µM; in the experiment on ACHN renal, greater than 100 µM; in the experiment with MDA-MB-231 breast, greater than 100 µM; in the experiment on HOP-92 NSCLC, 9.15 µM. The TGI in the experiment on NCI-H226 lung, in the experiment with NCI-H23 lung and with SK-MEL-5 melanoma was greater than 100 µM in each case.

For the compound `Cn1c(NCC(CN2CCCC2)OC(=O)c2ccccc2)cc(=O)n(C)c1=O` (configuration not stated), the GI50 is greater than 100 µM in the experiment on A549 NSCLC; greater than 100000 nM in the experiment on UACC-257 melanoma; greater than 100 µM in the experiment with TK-10 renal; greater than 100 µM in the experiment with ACHN renal; greater than 100 µM in the experiment with MDA-MB-231 breast; greater than 100000 nM in the experiment on HOP-92 NSCLC. The GI50 in the experiment on NCI-H226 lung was greater than 100000 nM; in the experiment on NCI-H23 lung it was greater than 100 µM; with SK-MEL-5 melanoma, greater than 100000 nM. The TGI in the experiment with A549 NSCLC, in the experiment on UACC-257 melanoma, with TK-10 renal, in the experiment with ACHN renal, in the experiment on MDA-MB-231 breast and with HOP-92 NSCLC was greater than 100 µM throughout. In addition, the TGI with NCI-H226 lung, in the experiment with NCI-H23 lung and in the experiment with SK-MEL-5 melanoma was greater than 100 µM each time.

`O=C(Nc1ccc(I)cc1)c1cccc([N+](=O)[O-])c1O`: the GI50 in the experiment with A549 NSCLC was 4.52 µM; with UACC-257 melanoma, 2960 nM; in the experiment on TK-10 renal, 3.56 µM; with HL-60(TB) leukemia it was 2960 nM; in the experiment on ACHN renal, 4.16 µM; in the experiment with MDA-MB-231 breast, 6.03 µM. Further, the GI50 with HOP-92 NSCLC is 373 nM; in the experiment on NCI-H226 lung, 2810 nM; in the experiment with NCI-H23 lung it was 2.26 µM. Also, the TGI with A549 NSCLC was greater than 100 µM; in the experiment on UACC-257 melanoma it was 8.57 µM; in the experiment with TK-10 renal it was greater than 100 µM; in the experiment on HL-60(TB) leukemia, 9.32 µM; with ACHN renal it was greater than 100 µM; in the experiment with MDA-MB-231 breast it was greater than 100 µM. Also, the figures for the TGI in the experiment with HOP-92 NSCLC, in the experiment with NCI-H226 lung and in the experiment on NCI-H23 lung were 3.22 µM, 33.5 µM and 8 µM, respectively.

Regarding `NC(=O)CCc1ccccc1Oc1nccc(-c2c(-c3ccc(F)cc3)ncn2C2CCNCC2)n1`, the GI50 with A549 NSCLC is greater than 25 µM; in the experiment on TK-10 renal, greater than 25 µM; with HL-60(TB) leukemia, greater than 25000 nM; in the experiment with ACHN renal it was greater than 25 µM; with MDA-MB-231 breast, greater than 25 µM; in the experiment with SK-MEL-5 melanoma it was greater than 25000 nM. Also, the TGI in the experiment on A549 NSCLC, in the experiment with TK-10 renal, in the experiment on HL-60(TB) leukemia, with ACHN renal, in the experiment on MDA-MB-231 breast and in the experiment with SK-MEL-5 melanoma was greater than 25 µM throughout.

As to `CC1CCC2CC1NC(=O)CCOCCC(=O)NC2(C)C` (configuration not stated), the TGI in the experiment on A549 NSCLC, with UACC-257 melanoma, with TK-10 renal, in the experiment on HL-60(TB) leukemia, with MDA-MB-231 breast and with HOP-92 NSCLC was greater than 100 µM each time. In addition, the TGI with NCI-H23 lung and in the experiment with SK-MEL-5 melanoma was greater than 100 µM in each case.

For the compound `O=c1[nH]c2ccccc2n2cc3ccccc3c12`, the GI50 with A549 NSCLC is 5.9 µM; in the experiment on UACC-257 melanoma it was 15300 nM; in the experiment with TK-10 renal, 20.6 µM; in the experiment on ACHN renal, 1.81 µM; in the experiment on MDA-MB-231 breast it was 0.948 µM; with HOP-92 NSCLC it was 3990 nM. Also, the GI50 in the experiment with NCI-H226 lung was 2880 nM; with NCI-H23 lung it was 11.1 µM; in the experiment with SK-MEL-5 melanoma, 1890 nM. In addition, the TGI in the experiment on A549 NSCLC came out at 32.2 µM; with UACC-257 melanoma it was 33.1 µM; in the experiment on TK-10 renal, 36.9 µM; in the experiment on ACHN renal, 7.18 µM; in the experiment with MDA-MB-231 breast it was 10.2 µM; in the experiment with HOP-92 NSCLC, 18.5 µM. For the same compound, the TGI in the experiment on NCI-H226 lung was determined as 13.8 µM; in the experiment on NCI-H23 lung, 36.6 µM; in the experiment with SK-MEL-5 melanoma, 14.9 µM.

As to `O=C(CCN1CCC(CCO)CC1)Nc1ccc2c(c1)C(=O)c1ccc(NC(=O)CCN3CCC(CCO)CC3)cc1C2=O`, the TGI in the experiment with A549 NSCLC, in the experiment on UACC-257 melanoma, in the experiment with TK-10 renal, with HL-60(TB) leukemia, in the experiment with ACHN renal and in the experiment on HOP-92 NSCLC was greater than 100 µM each time. The TGI in the experiment on NCI-H226 lung was 76.5 µM; in the experiment on NCI-H23 lung, greater than 100 µM; in the experiment on SK-MEL-5 melanoma, greater than 100 µM.

Take `NC(CO)c1ccc(OCc2ccccc2)cc1` (configuration not stated): the TGI in the experiment on A549 NSCLC is greater than 100 µM; in the experiment on UACC-257 melanoma, greater than 100 µM; in the experiment on TK-10 renal, greater than 100 µM; with HL-60(TB) leukemia, greater than 100 µM; in the experiment with ACHN renal, greater than 100 µM; in the experiment with HOP-92 NSCLC it was 98.1 µM. The TGI in the experiment on NCI-H226 lung, in the experiment on NCI-H23 lung and in the experiment with SK-MEL-5 melanoma was greater than 100 µM in each case.

For the compound `CN(C)c1ccc(/C=c2\sc3nnc(-c4cccnc4)n3c2=O)cc1`, the TGI in the experiment with A549 NSCLC, with UACC-257 melanoma, in the experiment with TK-10 renal, with HL-60(TB) leukemia, in the experiment with ACHN renal and in the experiment with HOP-92 NSCLC was greater than 100 µM throughout. Moreover, the TGI in the experiment on NCI-H226 lung, in the experiment on NCI-H23 lung and in the experiment on SK-MEL-5 melanoma was greater than 100 µM each time.

Take `Cc1cc(C(O)(c2ccc(Nc3ccccc3)cc2)c2ccc(Nc3ccc(S(=O)(=O)O)cc3)cc2)ccc1N` (configuration not stated): the GI50 is 1.55 µM with A549 NSCLC; 1350 nM in the experiment with UACC-257 melanoma; 1.7 µM with TK-10 renal; 1660 nM in the experiment on HL-60(TB) leukemia; 1.29 µM in the experiment with ACHN renal; 1030 nM in the experiment on HOP-92 NSCLC. The GI50 in the experiment with NCI-H226 lung was 1630 nM; in the experiment with NCI-H23 lung, 1.69 µM; in the experiment with SK-MEL-5 melanoma it was 1260 nM. The TGI in the experiment with A549 NSCLC is 3.25 µM; in the experiment with UACC-257 melanoma, 3.43 µM; in the experiment on TK-10 renal, 3.77 µM; in the experiment with HL-60(TB) leukemia, 6.12 µM; in the experiment on ACHN renal, 2.7 µM; in the experiment on HOP-92 NSCLC, 2.54 µM. The TGI in the experiment on NCI-H226 lung is 3.42 µM; in the experiment on NCI-H23 lung it was 3.56 µM; in the experiment with SK-MEL-5 melanoma, 2.58 µM.
